Test results taken from patent US20250059205A1, “Heterocyclic Compounds and Methods of Use” (AMGEN INC., priority 2021, published 2025).

Columns and labels:
[1] = system: Phosphorylation of ERK1/2 in AsPC-1 cells; assay: Phospho-ERK1/2 MSD Assay (AsPC-1 cells); assay type: cell-based; conditions: Homo sapiens, ASPC1, 2 h, 2 hours treatment, read-out: p-ERK (AsPC-1 cells) IC50
How it was run: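 Read-out: MSD electrochemiluminescent detection of phosphorylated ERK1/2 in whole-cell lysates, fitted to a 4-parameter logistic curve for IC50. Prior to lysis, AsPC-1 cells (25,000 per well) received a 2 h compound dose-response at 37 °C.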

[2] = target: GDP-bound KRAS protein (aa 1-169), containing both G12D and C118A amino acid substitutions (Homo sapiens, UniProt P01116, C118A/G12D); assay: KRAS G12D Coupled Nucleotide Exchange Assay; assay type: biochemical; conditions: 2 h compound pre-incubation
Procedure: Following compound pre-incubation, purified SOS protein (aa 564-1049) and GTP (Roche 10106399001) were added to the assay wells and incubated for an additional 30 min. […] The assay plates were then read on a PerkinElmer EnVision Multilabel Reader, using AlphaScreen® technology, and data were analyzed using a 4-parameter logistic model to calculate IC50 values.

[3] = system: Phosphorylation of ERK1/2 in A-427 cells; assay: Phospho-ERK1/2 MSD Assay (A-427 cells); assay type: cell-based; conditions: Homo sapiens, A-427, 2 h, 2 h treatment, read-out: p-ERK (A427 cells) IC50
How it was run: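 ERK1/2 phosphorylation measured by Meso Scale whole-cell lysate assay after A-427 cells were exposed to a titration of compound for 2 h at 37 °C.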

[4] = target: His-tagged KRAS G12D protein (Homo sapiens, UniProt P01116, G12D); assay: KRAS G12D TR-FRET Assay; assay type: binding
Sequence of His-tagged KRAS G12D protein (P01116 1-188 isoform P01116-2 G12D): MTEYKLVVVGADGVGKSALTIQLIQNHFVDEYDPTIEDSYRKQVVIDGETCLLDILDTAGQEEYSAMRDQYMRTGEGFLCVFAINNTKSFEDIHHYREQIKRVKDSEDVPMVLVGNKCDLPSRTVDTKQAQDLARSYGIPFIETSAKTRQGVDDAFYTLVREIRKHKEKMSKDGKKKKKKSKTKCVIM

Sequence of GDP-bound KRAS protein (aa 1-169), containing both G12D and C118A amino acid substitutions (P01116 1-169 isoform P01116-2 G12D/C118A): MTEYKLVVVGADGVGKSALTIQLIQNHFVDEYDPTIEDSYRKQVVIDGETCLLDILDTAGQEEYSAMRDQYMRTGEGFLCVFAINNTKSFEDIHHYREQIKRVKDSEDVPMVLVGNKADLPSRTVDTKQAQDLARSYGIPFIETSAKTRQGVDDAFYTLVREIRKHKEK

| Structure (SMILES) | IC50 [1] [nM] | Avg 2 h Coupled Exchange IC50 [2] [nM] | IC50 [3] [nM] | IC50 [4] [nM] |
| --- | --- | --- | --- | --- |
| Oc1cc(-c2ccc3c(N4C[C@H]5CC[C@@H](C4)N5)nc(OC[C@@]45CCCN4C[C@H](F)C5)nc3c2)c2ccccc2c1 [Example 41, 4-(4-((1R,5S)-3,8-diazabicyclo[3.2. 1]octan-3-yl)-2-(((2R,7aS)-2-fluorotetrahydro-1H-pyrrolizin-7a(5H)-yl)methoxy)quinazolin-7-yl)naphthalen-2-ol] | 182 | 2 | 74 | 2 |
| Oc1cc(-c2cc3nc(OC[C@@]45CCCN4C[C@H](F)C5)nc(N4C[C@H]5CC[C@@H](C4)N5)c3cc2F)c2ccccc2c1 [Example 42, 4-(4-((1R,5S)-3,8-diazabicyclo[3.2. 1]octan-3-yl)-6-fluoro-2-(((2R,7aS)-2-fluorotetrahydro-1H-pyrrolizin-7a(5H)-yl)methoxy)quinazolin-7-yl)naphthalen-2-ol] | 223 | 3 | 77 | 3 |
| Oc1cc(-c2ccc3c(N4C[C@H]5CC[C@@H](C4)N5)nc(OC[C@]45CCCN4C[C@H](F)C5)nc3c2F)c2ccccc2c1 [Example 44, 4-(4-((1R,5S)-3,8-diazabicyclo[3.2. 1]octan-3-yl)-8-fluoro-2-(((2R,7aR)-2-fluorotetrahydro-1H-pyrrolizin-7a(5H)-yl)methoxy)quinazolin-7-yl)naphthalen-2-ol] | 114 | 2 | 19 | 2 |
| Oc1cc(-c2ccc3c(N4C[C@@H]5CC[C@H]4CN5)nc(OC[C@@]45CCCN4C[C@H](F)C5)nc3c2F)c2ccccc2c1 [Example 45, 4-(4-((1S,4S)-2,5-diazabicyclo[2.2. 2]octan-2-yl)-8-fluoro-2-(((2R,7aS)-2-fluorotetrahydro-1H-pyrrolizin-7a(5H)-yl)methoxy)quinazolin-7-yl)naphthalen-2-ol] | 190 | 2 | 25 | 4 |
| Oc1cc(-c2ccc3c(N4C[C@H]5CC[C@@H](C4)N5)nc(OC[C@@]45CCCN4C[C@H](F)C5)nc3c2F)c2ccccc2c1 [Example 46, 4-(4-((1R,5S)-3,8-diazabicyclo[3.2. 1]octan-3-yl)-8-fluoro-2-(((2R,7aS)-2-fluorotetrahydro-1H-pyrrolizin-7a(5H)-yl)methoxy)quinazolin-7-yl)naphthalen-2-ol] | 39 | 2 | 6 | 2 |
| Oc1cc(-c2c(F)cc3c(N4C[C@@H]5CC[C@H]4CN5)nc(OC[C@@]45CCCN4C[C@H](F)C5)nc3c2F)c2ccccc2c1 [Example 48, 4-(4-((1S,4S)-2,5-diazabicyclo[2.2. 2]octan-2-yl)-6,8-difluoro-2-(((2R,7aS)-2-fluorotetrahydro-1H-pyrrolizin-7a(5H)-yl)methoxy)quinazolin-7-yl)naphthalen-2-ol] | 157 | 4 | 43 | 4 |
| Oc1cc(-c2c(F)cc3c(N4C[C@@H]5C[C@H]4CN5)nc(OC[C@@]45CCCN4C[C@H](F)C5)nc3c2F)c2ccccc2c1 [Example 49, 4-(4-((1S,4S)-2,5-diazabicyclo[2.2. 1]heptan-2-yl)-6,8-difluoro-2-(((2R,7aS)-2-fluorotetrahydro-1H-pyrrolizin-7a(5H)-yl)methoxy)quinazolin-7-yl)naphthalen-2-ol] | 3600 | 9 | 652 | 18 |
| Oc1cc(-c2ccc3c(N4C[C@@H]5C[C@H]4CN5)nc(OC[C@@]45CCCN4C[C@H](F)C5)nc3c2F)c2ccccc2c1 [Example 50, 4-(4-((1S,4S)-2,5-diazabicyclo[2.2. 1]heptan-2-yl)-8-fluoro-2-(((2R,7aS)-2-fluorotetrahydro-1H-pyrrolizin-7a(5H)-yl)methoxy)quinazolin-7-yl)naphthalen-2-ol] | 4470 | 7 | 1010 | 11 |
| Oc1cc(-c2c(Cl)cc3c(N4C[C@H]5CC[C@@H](C4)N5)nc(OC[C@]45CCCN4C[C@H](F)C5)nc3c2F)c2ccccc2c1 [Example 51, 4-(4-((1R,5S)-3,8-diazabicyclo[3.2. 1]octan-3-yl)-6-chloro-8-fluoro-2-(((2R,7aR)-2-fluorotetrahydro-1H-pyrrolizin-7a(5H)-yl)methoxy)quinazolin-7-yl)naphthalen-2-ol] | 185 | 1 | 136 | 3 |
| Oc1cc(-c2c(Cl)cc3c(N4C[C@H]5CC[C@@H](C4)N5)nc(OC[C@@]45CCCN4C[C@H](F)C5)nc3c2F)c2ccccc2c1 [Example 52, 4-(4-((1R,5S)-3,8-diazabicyclo[3.2. 1]octan-3-yl)-6-chloro-8-fluoro-2-(((2R,7aS)-2-fluorotetrahydro-1H-pyrrolizin-7a(5H)-yl)methoxy)quinazolin-7-yl)naphthalen-2-ol] | 107 | 3 | 41 | 3 |
| Oc1cc(-c2cc3nc(OC[C@@]45CCCN4C[C@H](F)C5)nc(N4[C@@H]5CC[C@H]4CNC5)c3cc2F)c2ccccc2c1 [Example 53, 4-(4-((1R,5S)-3,8-diazabicyclo[3.2. 1]octan-8-yl)-6-fluoro-2-(((2R,7aS)-2-fluorotetrahydro-1H-pyrrolizin-7a(5H)-yl)methoxy)quinazolin-7-yl)naphthalen-2-ol] | 919 | 3 | 608 | 16 |
| CCc1cccc2cccc(-c3ccc4c(N5C[C@H]6CC[C@@H](C5)N6)nc(OC[C@@]56CCCN5C[C@H](F)C6)nc4c3F)c12 [Example 54, 4-((1R,5S)-3,8-diazabicyclo[3.2. 1]octan-3-yl)-7-(8-ethylnaphthalen-1-yl)-8-fluoro-2-(((2R,7aS)-2-fluorotetrahydro-1H-pyrrolizin-7a(5H)-yl)methoxy) quinazoline] | 1220 | 3 | 795 | 4 |
| Fc1c(-c2cccc3cccc(Cl)c23)ccc2c(N3C[C@H]4CC[C@@H](C3)N4)nc(OC[C@@]34CCCN3C[C@H](F)C4)nc12 [Example 55, 4-((1R,5S)-3,8-diazabicyclo[3.2. 1]octan-3-yl)-7-(8-chloronaphthalen-1-yl)-8-fluoro-2-(((2R,7aS)-2-fluorotetrahydro-1H-pyrrolizin-7a(5H)-yl)methoxy) quinazoline] | 1660 | 7 | 1150 | 8 |
| Oc1cc(-c2ccc3c(N4C[C@H]5CC[C@@H](C4)N5)nc(OC[C@@]45CCCN4C[C@H](F)C5)nc3c2F)c2c(Cl)cccc2c1 [Example 56, 4-(4-((1R,5S)-3,8-diazabicyclo[3.2. 1]octan-3-yl)-8-fluoro-2-(((2R,7aS)-2-fluorotetrahydro-1H-pyrrolizin-7a(5H)-yl)methoxy)quinazolin-7-yl)-5-chloronaphthalen-2-ol] | 109 | 4 | 23 | 5 |
| Cc1c(-c2cc(O)cc3cccc(Cl)c23)ccc2c(N3C[C@H]4CC[C@@H](C3)N4)nc(OC[C@@]34CCCN3C[C@H](F)C4)nc12 [Example 57, 4-(4-((1R,5S)-3,8-diazabicyclo[3.2. 1]octan-3-yl)-2-(((2R,7aS)-2-fluorotetrahydro-1H-pyrrolizin-7a(5H)-yl)methoxy)-8-methylquinazolin-7-yl)-5-chloronaphthalen-2-ol] | 213 | 3 | 222 | 5 |
| CCc1c(F)ccc2cccc(-c3ccc4c(N5C[C@H]6CC[C@@H](C5)N6)nc(OC[C@@]56CCCN5C[C@H](F)C6)nc4c3C)c12 [Example 58, 4-((1R,5S)-3,8-diazabicyclo[3.2. 1]octan-3-yl)-7-(8-ethyl-7-fluoronaphthalen-1-yl)-2-(((2R,7aS)-2-fluorotetrahydro-1H-pyrrolizin-7a(5H)-yl)methoxy)-8-methylquinazolin] | 2460 | 5 | 4190 | 6 |
| CCc1cccc2cccc(-c3ccc4c(N5C[C@H]6CC[C@@H](C5)N6)nc(OC[C@@]56CCCN5C[C@H](F)C6)nc4c3C)c12 [Example 59, 4-((1R,5S)-3,8-diazabicyclo[3.2. 1]octan-3-yl)-7-(8-ethylnaphthalen-1-yl)-2-(((2R,7aS)-2-fluorotetrahydro-1H-pyrrolizin-7a(5H)-yl)methoxy)-8-methylquinazoline] | 4160 | 11 | 3380 | 8 |
| N#Cc1cccc2cccc(-c3c(F)cc4c(N5C[C@H]6CC[C@@H](C5)N6)nc(OC[C@@]56CCCN5C[C@H](F)C6)nc4c3F)c12 [Example 60, 8-(4-((1R,5S)-3,8-diazabicyclo[3.2. 1]octan-3-yl)-6,8-difluoro-2-(((2R,7aS)-2-fluorotetrahydro-1H-pyrrolizin-7a(5H)-yl)methoxy)quinazolin-7-yl)-1-naphthonitrile] | 418 | 4 | 530 | 8 |
